# Laboratory results reported in patent US8604218B2, “Cytoskeletal active rho kinase inhibitor compounds, composition and use” (Inspire Pharmaceuticals, Inc., priority 2006, dated 2013).
# Target: ROCK2 (Homo sapiens (Human), UniProt O75116)
# Assay: Rho Kinase Inhibition Assay (IMAP fluorescence polarization)
# Type: biochemical
# Conditions: isolated enzyme, 10 μM ATP, 60 minutes at room temperature
# Experimental: Following the preincubation, 10 μM ATP was added to initiate the reaction. After 60 minutes at room temperature, Molecular Devices IMAP™ binding solution was added to bind phosphorylated substrate. After 30 minutes of incubation in the presence of the IMAP™ beads the fluorescence polarization was read and the ratio was reported as mP. IC50 results were calculated using the Prism software from Graphpad.
# See Tian et al., Arch. Ophthalmol. […] Ophthalmol. Vis. […] Ophthalmol. […] Cytoskel. […] Ophthalmol. Vis. […] Ophthalmol. Vis.
# Chain of ROCK2 (O75116 11-552): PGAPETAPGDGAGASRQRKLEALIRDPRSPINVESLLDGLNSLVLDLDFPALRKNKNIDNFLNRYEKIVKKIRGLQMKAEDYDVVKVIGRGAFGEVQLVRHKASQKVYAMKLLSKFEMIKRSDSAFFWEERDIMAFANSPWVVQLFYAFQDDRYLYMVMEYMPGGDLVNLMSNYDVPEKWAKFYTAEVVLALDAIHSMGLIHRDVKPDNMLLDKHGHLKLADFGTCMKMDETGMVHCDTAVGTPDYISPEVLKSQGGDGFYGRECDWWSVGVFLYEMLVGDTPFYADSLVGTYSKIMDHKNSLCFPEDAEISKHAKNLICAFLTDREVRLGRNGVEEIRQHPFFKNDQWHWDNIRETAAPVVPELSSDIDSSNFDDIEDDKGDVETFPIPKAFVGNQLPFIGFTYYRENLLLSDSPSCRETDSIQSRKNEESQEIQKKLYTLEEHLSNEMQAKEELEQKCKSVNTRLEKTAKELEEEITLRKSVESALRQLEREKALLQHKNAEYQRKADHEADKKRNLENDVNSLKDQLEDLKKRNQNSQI
row,IC50 [µM],Compound
1,0.276,"CS(=O)(=O)Nc1cccc(CN2CC[C@@H](Nc3ccc4[nH]ncc4c3)C2)c1 [Compound 1.097, (R)-N-(3-((3-(1H-indazol-5-ylamino)pyrrolidin-1-yl)methyl)phenyl)methanesulfonamide]"
2,0.25,"NC(=O)COc1cccc(CN2CCCC(Nc3ccc4[nH]ncc4c3)C2)c1 (stereo not drawn) [Compound 1.098, 2-(3-((3-(1H-indazol-5-ylamino)piperidin-1-yl)methyl)phenoxy)acetamide]"
3,0.0258,"NC(=O)Cn1ccc2ccc(CN3CCCC(Nc4ccc5[nH]ncc5c4)C3)cc21 (stereo not drawn) [Compound 1.099, 2-(6-((3-(1H-indazol-5-ylamino)piperidin-1-yl)methyl)-1H-indol-1-yl)acetamide]"
4,0.0429,"c1cc2cc(CN3CCCC(Nc4ccc5[nH]ncc5c4)C3)ccc2[nH]1 (stereo not drawn) [Compound 1.100, N-(1-((1H-indol-5-yl)methyl)piperidin-3-yl)-1H-indazol-5-amine]"
5,0.0685,"OCCn1ccc2ccc(CN3CCCC(Nc4ccc5[nH]ncc5c4)C3)cc21 (stereo not drawn) [Compound 1.101, 2-(6-((3-(1H-indazol-5-ylamino)piperidin-1-yl)methyl)-1H-indol-1-yl)ethanol]"
6,0.0343,"CS(=O)(=O)Nc1cc(CN2CCCC(Nc3ccc4[nH]ncc4c3)C2)ccc1Cl (stereo not drawn) [Compound 1.102, N-(5-((3-(1H-indazol-5-ylamino)piperidin-1-yl)methyl)-2-chlorophenyl)methanesulfonamide]"
7,0.107,"OCCN1CCc2ccc(CN3CCCC(Nc4ccc5[nH]ncc5c4)C3)cc21 (stereo not drawn) [Compound 1.104, 2-(6-((3-(1H-indazol-5-ylamino)piperidin-1-yl)methyl)indolin-1-yl)ethanol]"
8,0.172,"NC(=O)Cn1ccc2cc(CN3CCCC(Nc4ccc5[nH]ncc5c4)C3)ccc21 (stereo not drawn) [Compound 1.105, 2-(5-((3-(1H-indazol-5-ylamino)piperidin-1-yl)methyl)-1H-indol-1-yl)acetamide]"
9,0.0692,"NC(=O)Cn1ccc2ccc(CN3CCC[C@@H](Nc4ccc5[nH]ncc5c4)C3)cc21 [Compound 1.106, (R)-2-(6-((3-(1H-indazol-5-ylamino)piperidin-1-yl)methyl)-1H-indol-1-yl)acetamide]"
10,0.148,"NC(=O)Cn1ccc2ccc(CN3CCC[C@H](Nc4ccc5[nH]ncc5c4)C3)cc21 [Compound 1.107, (S)-2-(6-((3-(1H-indazol-5-ylamino)piperidin-1-yl)methyl)-1H-indol-1-yl)acetamide]"
11,0.367,"OCCn1ccc2ccc(CN3CCC[C@@H](Nc4ccc5[nH]ncc5c4)C3)cc21 [Compound 1.108, (R)-2-(6-((3-(1H-indazol-5-ylamino)piperidin-1-yl)methyl)-1H-indol-1-yl)ethanol]"
12,0.242,"OCCn1ccc2ccc(CN3CCC[C@H](Nc4ccc5[nH]ncc5c4)C3)cc21 [Compound 1.109, (S)-2-(6-((3-(1H-indazol-5-ylamino)piperidin-1-yl)methyl)-1H-indol-1-yl)ethanol]"
13,0.591,"CC(=O)NCCOc1cccc(CN2CCCC(Nc3ccc4[nH]ncc4c3)C2)c1 (stereo not drawn) [Compound 1.111, N-(2-(3-((3-(1H-indazol-5-ylamino)piperidin-1-yl)methyl)phenoxy)ethyl)acetamide]"
14,2.03,"CC(C)(C)OC(=O)Cn1ccc2cc(CN3CCCC(Nc4ccc5[nH]ncc5c4)C3)ccc21 (stereo not drawn) [Compound 1.112, tert-butyl 2-(5-((3-(1H-indazol-5-ylamino)piperidin-1-yl)methyl)-1H-indol-1-yl)acetate]"
15,1.49,"OCCn1ccc2cc(CN3CCCC(Nc4ccc5[nH]ncc5c4)C3)ccc21 (stereo not drawn) [Compound 1.114, 2-(5-((3-(1H-indazol-5-ylamino)piperidin-1-yl)methyl)-1H-indol-1-yl)ethanol]"
16,0.862,"C[C@@H](O)COc1cccc(CN2CCC[C@@H](Nc3ccc4[nH]ncc4c3)C2)c1 [Compound 1.116, (R)-1-(3-(((R)-3-(1H-indazol-5-ylamino)piperidin-1-yl)methyl)phenoxy)propan-2-ol]"
17,1.4,"C[C@@H](O)COc1cccc(CN2CCC[C@H](Nc3ccc4[nH]ncc4c3)C2)c1 [Compound 1.118, (R)-1-(3-(((S)-3-(1H-indazol-5-ylamino)piperidin-1-yl)methyl)phenoxy)propan-2-ol]"
18,3.63,"O=C(O)Cn1ccc2cc(CN3CCCC(Nc4ccc5[nH]ncc5c4)C3)ccc21 (stereo not drawn) [Compound 1.119, 2-(5-((3-(1H-indazol-5-ylamino)piperidin-1-yl)methyl)-1H-indol-1-yl)acetic acid]"
19,0.109,"CCS(=O)(=O)Nc1cccc(CN2CCCC(Nc3ccc4[nH]ncc4c3)C2)c1 (stereo not drawn) [Compound 1.120, N-(3-((3-(1H-indazol-5-ylamino)piperidin-1-yl)methyl)phenyl)ethanesulfonamide]"
20,0.578,"CN(c1cccc(CN2CCCC(Nc3ccc4[nH]ncc4c3)C2)c1)S(C)(=O)=O (stereo not drawn) [Compound 1.121, N-(3-((3-(1H-indazol-5-ylamino)piperidin-1-yl)methyl)phenyl)-N-methylmethanesulfonamide]"
21,0.254,"CC(=O)NCc1cccc(CN2CCCC(Nc3ccc4[nH]ncc4c3)C2)c1 (stereo not drawn) [Compound 1.122, N-(3-((3-(1H-indazol-5-ylamino)piperidin-1-yl)methyl)benzyl)acetamide]"
22,0.135,"CCS(=O)(=O)Nc1cccc(CN2CCC[C@@H](Nc3ccc4[nH]ncc4c3)C2)c1 [Compound 1.123, (R)-N-(3-((3-(1H-indazol-5-ylamino)piperidin-1-yl)methyl)phenyl)ethanesulfonamide]"
23,0.0592,"CCS(=O)(=O)Nc1cccc(CN2CCC[C@H](Nc3ccc4[nH]ncc4c3)C2)c1 [Compound 1.124, (S)-N-(3-((3-(1H-indazol-5-ylamino)piperidin-1-yl)methyl)phenyl)ethanesulfonamide]"
24,0.879,"O=C(O)COc1cccc(CN2CCC[C@@H](Nc3ccc4[nH]ncc4c3)C2)c1 [Compound 1.125, (R)-2-(3-((3-(1H-indazol-5-ylamino)piperidin-1-yl)methyl)phenoxy)acetic acid]"
25,2.71,"OCCOc1cccc(CN2CCC(Nc3ccc4[nH]ncc4c3)CC2)c1 [Compound 1.130, 2-(3-((4-(1H-indazol-5-ylamino)piperidin-1-yl)methyl)phenoxy)ethanol]"
26,0.0988,"COc1ccc(CN2CCCC(Nc3cccc4cnccc34)C2)cc1 (stereo not drawn) [Compound 2.001, N-(1-(4-methoxybenzyl)piperidin-3-yl)isoquinolin-5-amine]"
27,5.72,"N#Cc1cccc(CN2CCCC(Nc3cccc4cnccc34)C2)c1 (stereo not drawn) [Compound 2.003, 3-((3-(isoquinolin-5-ylamino)piperidin-1-yl)methyl)benzonitrile]"
28,3.71,"CC(=O)Nc1ccc(CN2CCCC(Nc3cccc4cnccc34)C2)cc1 (stereo not drawn) [Compound 2.004, N-(4-((3-(isoquinolin-5-ylamino)piperidin-1-yl)methyl)phenyl)acetamide]"

row,Compound,IC50 [µM]
1,"OC[C@H](O)COc1cccc(CN2CCC[C@@H](Nc3ccc4[nH]ncc4c3)C2)c1 [Compound 1.113, (S)-3-(3-(((R)-3-(1H-indazol-5-ylamino)piperidin-1-yl)methyl)phenoxy)propane-1,2-diol]",0.859
2,"OC[C@@H](O)COc1cccc(CN2CCC[C@@H](Nc3ccc4[nH]ncc4c3)C2)c1 [Compound 1.115, (R)-3-(3-(((R)-3-(1H-indazol-5-ylamino)piperidin-1-yl)methyl)phenoxy)propane-1,2-diol]",0.555
